Where two headings read alike, the source gives them in different places.

Seven compounds from patent US20240294478A1, “ANTI-CANCER COMPOUNDS AND METHODS OF USE” (YALE UNIVERSITY, priority 2021, published 2024) can be followed below.

The test system of test [1] is LN229 MGMT+/MMR+ cells. Put plainly: Short-term cell viability assay, LN229 MGMT+/MMR+. The class given is cell-based. The settings on record: Homo sapiens, read-out: IC50 against LN229 cell lines, MGMT+ MMR+. How it is done:
(§1) LN229 MGMT- and MGMT+ cell lines were a gift from B. Kaina (Johannes Gutenberg University Mainz, Mainz, Germany) and grown in Gibco® Duilbecco's Modified Eagle Medium with 10% fetal bovine serum (DMEM). For each compound tested, the relationship between MGMT status and MMR status and compound activity, in terms of IC50 values ([…]), was determined by the following method. On day 1, LN229 isogenic cells of varying MGMT and MMR status were seeded in 96 well format at a density of 2000 cells/well in 100 μL of DMEM media and allowed to adhere overnight. On day 2, a drug master plate was made with 100×the desired maximal concentration of test compound and serially diluted by 2 until 100×the minimal desired concentration, with one DMSO control. Then daughter plates were created with varied concentrations from 3-times the minimal concentration to 3-times the maximal desired concentration. Afterwards, 50 μL of daughter drug plate was added to 100 μL of the seeded cells for a final concentration of 1×in triplicate. Cells were allowed to grow for 6 days. On day 7, the cells were fixed, and stained with Hoechst nuclear dye and imaged to determine growth inhibition.
(§2) For each compound tested, the relationship between MGMT status and MMR status and compound activity, in terms of IC50 values (in μM), was determined. In addition, for each compound, the therapeutic index (TI) was calculated, according to the equation MGMT TI=IC50 (MGMT+/MMR+) divided by IC50 (MGMT−/MMR+). The T1 indicates the efficacy of a compound in treating the targeted MGMT-cancer cells as compared to potential for the same compound to damage, or have adverse effects against, normal cells which are MGMT+cells, The higher the value of the TI, the safer the compound is. […] MMR RI (resistance index)=IC50 (MGMT−/MMR−) divided by IC50 (MGMT−/MMR+). The higher the value of the RI, the less likely that resistance to the compound will develop.
(§3) Short-term Cell Viability Assay. Cells were seeded in 96-well plates at 1000 or 2000 cells/well and allowed to adhere at 23° C. for 60 min and then incubated overnight at 37° C. Cells were treated with indicated concentrations of compounds in triplicate for 4-6 days prior to fixation with 3.7% paraformaldehyde and nuclear staining with 1 μg/mL Hoechst 33342 dye. Cells were imaged on a Cytation 3 imaging reader (BioTek) and quantified using CellProfiler software. For in vitro short-term growth delay experiments, IC50 values were determined from the nonlinear regression equation, [inhibitor] vs normalized response with variable slope.

Test [2] deals with LN229 MGMT+/MMR− cells. Put plainly: Short-term cell viability assay, LN229 MGMT+/MMR- (shRNA targeting MSH2). It is filed as cell-based. The note with it: Homo sapiens. How it is done: as §1, §2, §3
The test system of test [3] is LN229 MGMT−/MMR+ cells. Put plainly: Short-term cell viability assay, LN229 MGMT-/MMR+. The note with it: for IC50: Homo sapiens, read-out: IC50 against LN229 cell lines, MGMT− MMR+; for TI / RI, in words: LN229 isogenic lines; for MGMT− TI (therapeutic index): IC50 (MGMT+/MMR+) divided by IC50 (MGMT−/MMR+). The class given is cell-based, human. How it is done: as §1, §2, §3

The subject of test [4] is LN229 MGMT−/MMR− cells. The test is described as follows: Short-term cell viability assay, LN229 MGMT-/MMR- (shRNA targeting MSH2). The note with it: for IC50: Homo sapiens, read-out: IC50 against LN229 cell lines, MGMT− MMR−; for activity in MGMT−/MMR− cells, in words: LN229 MGMT−/MMR−; for MGMT− RI (resistance index): IC50 (MGMT−/MMR−) divided by IC50 (MGMT−/MMR+). It is filed as cell-based, human. How it is done: as §1
For each compound tested, the relationship between MGMT status and MMR status and compound activity, in terms of IC50 values (in μM), was determined. In addition, for each compound, the therapeutic index (TI) was calculated, according to the equation MGMT TI=IC50 (MGMT+/MMR+) divided by IC50 (MGMT−/MMR+). […] MMR RI (resistance index)=IC50 (MGMT−/MMR−) divided by IC50 (MGMT−/MMR+).
Short-term Cell Viability Assay. Cells were seeded in 96-well plates at 1000 or 2000 cells/well and allowed to adhere at 23° C. for 60 min and then incubated overnight at 37° C. […] Cells were imaged on a Cytation 3 imaging reader (BioTek) and quantified using CellProfiler software. For in vitro short-term growth delay experiments, IC50 values were determined from the nonlinear regression equation, [inhibitor] vs normalized response with variable slope.

Test [5] has as its system four isogenic LN229 glioblastoma cell lines. Put plainly: Short-term cell viability assays, statements across the isogenic lines. It is filed as cell-based, human. The note with it: regardless of MMR status. How it is done: as §1, §2, §3
Test [6] relates to MGMT+ LN229 cells. The test is described as follows: Clonogenic survival assay, LN229 MGMT+ cells. The class given is cell-based, human. How it is done:
(§4) In vitro clonogenic survival assays (CSAs) were performed using four isogenic LN229 glioblastoma cell lines.
(§5) Clonogenic Cell Survival Assay. Cells of each line were pretreated with the test drug in culture for 48-72 hours at the specified dilutions. The cells were then immediately seeded in six-well plates in triplicate at three-fold dilutions, ranging from 9000 to 37 cells per well. Depending on colony size, these plates were kept in the incubator for 10 to 14 days. After incubation, colonies were washed in phosphate-buffered saline (PBS) and stained with crystal violet. Colonies were counted by hand. Counts were normalized to plating efficiency of the corresponding treatment condition.

For test [7], the system named is MGMT− LN229 cells. Put plainly: Clonogenic survival assay, LN229 MGMT- cells. It is filed as cell-based, human. As to the method: as §4, §5
The test system of test [8] is MGMT−/MMR− cells. The test is described as follows: IR alkaline comet assay, LN229 MGMT-/MMR-, time course. The class given is cell-based, human. The settings on record: time points 2-24 h. How it is done:
The IR alkaline comet assay, adapted for ICL detection was performed to determine if ICLs were formed in MGMT-cells treated with KL-50. In this assay, cells were sequentially exposed to genotoxins and ionizing radiation, and then analyzed by single cell alkaline gel electrophoresis. Attenuation of the IR-induced comet tail is indicative of ICL formation.
IR Alkaline Comet Assay. This assay was performed utilizing the CometAssay™ Kit (Trevigen) according to the alkaline assay protocol, with the addition of slide irradiation post-lysis. Cells were trypsinized, washed with 1×PBS, added to melted Comet LMAgarose (Trevigen), and spread on Trevigen CometSlides at a density of 1000 cells per sample in 50 μL. Lysis solution (Trevigen) with 10% DMSO was added overnight at 4° C. Slides were removed from lysis buffer and irradiated to 0 or 10 Gy using an XRAD 320 X-Ray System (Precision X-Ray) at 320 kV, 12.5 mA, and 50.0 cm SSD, with a 2 mm Al filter and 20 cm×20 cm collimator. Slides were then placed in alkaline buffer (200 mM NaOH, 1 mM EDTA) for 45 min, followed by electrophoresis in 850 mL alkaline buffer for 45 min at 4° C. Slides were washed and stained with SYBR gold (Invitrogen) per Trevigen assay protocol. Slides were imaged on a Cytation 3 imaging reader (BioTek), and comets were analyzed using CometScore 2.0 software (TriTek).

Setting [9] is: LN-229, 144 h, Table 1, 6 days growth, Hoechst nuclear count.
Where [10] appears, read: LN-229, 144 h, Table 1, 6 days growth, read-out: IC50 against LN229 cell lines, MGMT+ MMR−.
[11] abbreviates: LN-229, 144 h, Table 1, 6 days growth.
Where [12] appears, read: LN-229, Table II, read-out: IC50 against LN229 cell lines, MGMT MMR−.

Regarding `CC(=O)N(CCF)/N=N/c1[nH]cnc1C(N)=O` [Compound E3, (E)-5-(3-acetyl-3-(2-fluoroethyl)triaz-1-en-1-yl)-1H-imidazole-4-carboxamide], the half-inhibitory concentration (IC50) in test [1] (setting [9]) was > 100 µM; in test [2] (setting [10]), > 100 µM; in test [3] (setting [11]), 40 ± 2 µM; in test [4] (setting [11]), 46 ± 4 µM. The “activity in MGMT−/MMR− cells, in words” value in test [4] is “exquisite sensitivity”. In test [5], the “activity in MGMT+ cells, in words” value is listed as “limited activity”.

Consider `CN(CCF)/N=N/c1nc[nH]c1C(N)=O` [Compound E5, 4-[(1E)-3-(2-fluoroethyl)-3-methyltriaz-1-en-1-yl]-1H-imidazole-5-carboxamide], for which the IC50 was > 199 µM in test [1] (LN-229, 144 h); > 100 µM in test [2] (LN-229, 144 h, read-out: IC50 against LN229 cell lines, MGMT+ MMR−); 14.2 ± 1 µM in test [3] (LN-229, 144 h); > 100 µM in test [4] (LN-229, 144 h).

Turning to `NC(=O)c1nc[nH]c1/N=N/N(CCF)C(=O)OCc1ccccc1` [Compound E4], the IC50 was 14 ± 1 µM in test [1] (setting [9]), 11 ± 1 µM in test [2] (setting [10]), 8 ± 1 µM in test [3] (setting [11]) and 17 ± 1 µM in test [4] (setting [11]).

Take `O=NN(CCCl)C(=O)NC1CCCCC1` [CCNU, 1-(2-chloroethyl)-3-cyclohexyl-1-nitrosourea, reference compound]: the half-inhibitory concentration (IC50) in test [1] (LN-229, Table II) was 21.6 ± 3.2 µM; in test [2] (setting [12]), 26.8 ± 7.3 µM; in test [3] (LN-229, Table II) it was 6.3 ± 0.3 µM; in test [4] (LN-229, Table II) it was 4.2 ± 0.2 µM. Besides, the “TI / RI, in words” value in test [3] is on record as “poor TI”. Further, the “MGMT− TI (therapeutic index)” value in test [3] (Table II) is listed as 3.4. Moreover, the “activity in MGMT−/MMR− cells, in words” value in test [4] was “effective against MGMT−/MMR− cells”. The “MGMT− RI (resistance index)” value in test [4] (Table II) was 0.7. In test [6] (irrespective of MMR status), the “clonogenic survival, activity in MGMT+ cells” value is reported as “cytotoxic to MGMT+cells”. Also, the “clonogenic survival, activity in MMR− cells” value in test [7] (isogenic cells lacking MMR) is given as “effective in MMR− cells”.

As for `NC(=O)c1ncn2c(=O)n(CCCl)nnc12` [MTZ, 3-(2-chloroethyl)-4-oxoimidazo[5,1-d][1,2,3,5]tetrazine-8-carboxamide, reference compound], the IC50 in test [1] (LN-229, Table II) came to 61.9 ± 4.7 µM; in test [2] (setting [12]) it was 50.8 ± 4.2 µM; in test [3] (LN-229, Table II), 9 ± 0.4 µM; in test [4] (LN-229, Table II), 6.9 ± 0.7 µM. Further, the “TI / RI, in words” value in test [3] was “poor TI”. Also, the “MGMT− TI (therapeutic index)” value in test [3] (Table II) amounted to 6.9. The “activity in MGMT−/MMR− cells, in words” value in test [4] is given as “effective against MGMT−/MMR− cells”. In addition, the “MGMT− RI (resistance index)” value in test [4] (Table II) is reported as 0.8. For the same compound, the “DNA damage in unirradiated samples” value in test [8] is reported as “maximal damage at 2 h”. Besides, the “DNA mobility after IR, rate of ICL formation” value in test [8] is “reduced DNA mobility within 2 h”.

As for `NC(=O)c1[nH]cnc1/N=N/NCCF` [Compound E1, 5-[(1E)-3-(2-fluoroethyl)triaz-1-en-1-yl]-1H-imidazole-4-carboxamide], the concentration for half-maximal inhibition (IC50) was > 100 µM in test [1] (setting [9]), > 100 µM in test [2] (setting [10]), 24 ± 2 µM in test [3] (setting [11]) and 22 ± 1 µM in test [4] (setting [11]). Besides, the “activity in MGMT−/MMR− cells, in words” value in test [4] is “exquisite sensitivity”. Also, the “activity in MGMT+ cells, in words” value in test [5] is listed as “limited activity”. The “surviving fraction of MGMT+ cells” value in test [6] (at concentrations as high as 1000 μM of E1) was “above 0.1”; in test [6] (at the same concentration (less than 100 μM of E1), regardless of MMR status), ~1.0. In addition, the “surviving fraction of MGMT− cells” value in test [7] (at less than 100 μM of E1, regardless of MMR status) was “dropped sharply”.

On to `NC(=O)c1nc[nH]c1/N=N/N(CCF)C(=O)Cc1ccccc1` [Compound E2, (E)-5-(3-(2-fluoroethyl)-3-(2-phenylacetyl)triaz-1-en-1-yl)-1H-imidazole-4-carboxamide], for which the IC50 is > 100 µM in test [1] (setting [9]), 72 ± 30 µM in test [2] (setting [10]), 28 ± 1 µM in test [3] (setting [11]) and 21 ± 1 µM in test [4] (setting [11]).

The IC50 is the concentration that inhibits the measured activity by half.
